Results on four molecules are retold here after US20070082930A1, “Pharmaceutical composition comprising a p2x7 receptor antagonist and a nonsteroidal anti-inflammatory drug” (ASTRAZENECA AB, priority 2003, published 2007).

Molecules are shown by their SMILES.

In the assay the test system is streptococcal cell wall-induced arthritis. The assay can be described thus: Rat streptococcal cell wall (SCW)-induced arthritis: ankle swelling and von Frey mechanical threshold. The assay is classed as in vivo. Particulars: oral bid, P2X7 antagonist 1 30 mg/kg. An excerpt: Assessment of Anti-Inflammatory Activity of the COX-2 Inhibitor, Celecoxib/P2X7 Antagonist Combinations in Rat Streptococcal Cell Wall-Induced Arthritis.^1 1. Experimental procedure based on that described by Carlson R P, Jacobsen P B, ‘Comparison of adjuvant and streptococcal cell wall-induced arthritis in the rat’in Morgan D W, Marshall L A, editors; In Vivo Models of Inflammation. Basel: Birkhauser Verlag; 1999.
Streptococcal cell wall (SCW)-induced arthritis was induced in the left ankle of female Lewis rats. Animals were sensitised by intra-articular injection of 5 μg (in 20 μL) SCW (Lee Laboratories) into the left ankle. Ankle swelling was assessed 3 days after injection and non-responders (animals with no apparent ankle swelling) were rejected. Responding animals were randomly allocated to the test groups.
Arthritis was induced 21 days after sensitisation by intravenous (iv) injection of SCW (100 μg in 500 μL saline). Animals were monitored and assessed on a daily basis through to term-ination 6 days after induction. The rats were housed on sawdust and provided with food and water ad libitum.
In this example the P2X7 antagonist 1 was orally dosed at 30 mg/kg (4 mL/kg, bid). The compound was dosed as a suspension in 1% (w/v) methylcellulose in deionised water and was freshly prepared on a daily basis. Dosing commenced 1 day prior to induction of arthriis and continued on a daily basis through to termination on day 6 post-induction. Celecoxib (3 mg/kg) was dosed orally under the same regime as for P2X7 antagonist 1, administration of celecoxib occurring immediately after administration of P2X7 antagonist 1.
Ankle diameters were measured with vernier callipers on a daily basis from day −1. Mechanical thresholds were assessed using von Frey filaments on days −1, 1, 3 and 5. The filaments were applied in increasing weights to the ankle region on the footpad of both feet. The first filament to induce a withdrawal response was considered to be the threshold.
Effects on ankle swelling and mechanical threshold were calculated on an area under the curve (AUC) basis, as the sum of the differences from individual day −1 values. The size. and direction of the interaction was calculated and data analysis performed by ANOVA followed by Dunnett's test on the AUC data (SAS version 8.01).
The anti-inflammatory activity of the COX-2 inhibitor, rofecoxib in combination with a P2X7 antagonist was assesesd using the protocol described in Example 3A. The P2X7 antagonist 1 was dosed orally at 30 mg/kg (4 mL/kg, bid) as a suspension in 1% (w/v) methylcellulose in deionised water, together with rofecoxib (Merck Sharp & Dohme Limited) (1 mg/kg) in a single formulation. Dosing commenced 1 day prior to induction of arthritis and continued on a daily baisis through to termination on day 6 post-induction.
The anti-inflammatory activity of the COX-2 inhibitor, valdecoxib in combination with a P2X7 antagonist was assesesd using the protocol described in Example 3A. The P2X7 antagonist 1 was orally dosed at 30 mg/kg (4 mL/kg, bid) as a suspension in 1% (w/v) methylcellulose in deionised water, together with valdecoxib (Pfizer) (1 mg/kg) in a single formulation. Dosing commenced 1 day prior to induction of arthritis and continued on a daily baisis through to termination on day 6 post-induction.

[1] abbreviates: Example 3A, female Lewis rats, day -1 to day 6 post-induction, celecoxib 3 mg/kg, given one immediately after the other.
Setting [2] is: Example 3B, day -1 to day 6, rofecoxib 1 mg/kg, single formulation.
Where [3] appears, read: Example 3C, day -1 to day 6, valdecoxib 1 mg/kg, single formulation.

Consider `Cc1ccc(-c2cc(C(F)(F)F)nn2-c2ccc(S(N)(=O)=O)cc2)cc1` [Celecoxib, 4-[5-(4-methylphenyl)-3-(trifluoromethyl)-1H-pyrazol-1-yl]benzenesulfonamide], for which, under setting [1], the “% reduction of AUC (compared to arthritic vehicle control) Ankle swelling” value worked out at 63.0 ± 3.9 % and the “% reduction of AUC (compared to arthritic vehicle control) Von Frey threshold” value is on record as 43.2 ± 15.9 %.
Turning to `Cc1ccc(C(=O)N2CC3CNCC(C2)O3)cc1NC(=O)CC12CC3CC(CC(C3)C1)C2.Cl` [P2X7 antagonist 1, N-[2-Methyl-5-(9-oxa-3,7-diazabicyclo[3.3.1]non-3-ylcarbonyl)phenyl]-tricyclo[3.3.1.1^3,7]decane-1-acetamide, hydrochloride], the “% reduction of AUC (compared to arthritic vehicle control) Ankle swelling” value was 28.5 ± 13.5% under setting [1], 2.6 ± 11.6% under setting [2] and 2.6 ± 11.6% under setting [3]. In addition, the “% reduction of AUC (compared to arthritic vehicle control) Von Frey threshold” value runs as follows: under setting [1], 21.1 ± 10.9%; under setting [2], 26.5 ± 11.4%; under setting [3], 26.5 ± 11.4%.
Consider `CS(=O)(=O)c1ccc(C2=C(c3ccccc3)C(=O)OC2)cc1` [Rofecoxib, 4-[4′-(methylsulfonyl)phenyl]-3-phenyl-(5H)-furanone], for which, under setting [2], the “% reduction of AUC (compared to arthritic vehicle control) Ankle swelling” value is reported as 50.6 ± 4.7 % and the “% reduction of AUC (compared to arthritic vehicle control) Von Frey threshold” value is given as 29.8 ± 7.8 %.
For the molecule `Cc1onc(-c2ccccc2)c1-c1ccc(S(N)(=O)=O)cc1` [Valdecoxib, 4-(5-methyl-3-phenyl-4-isoxazolyl)benzenesulfonamide], under setting [3], the “% reduction of AUC (compared to arthritic vehicle control) Ankle swelling” value was found to be 52.8 ± 3.1 % and the “% reduction of AUC (compared to arthritic vehicle control) Von Frey threshold” value came to 37.8 ± 8.6 %.
